These results are taken from US8952054B2, “Small molecule inhibitors of MUC1 and methods of identifying the same” (Dana-Farber Cancer Institute, Inc., priority 2010, dated 2015).

Each structure is given as a SMILES string.

Format in all cases: cell-based, human
One assay deals with MCF-7 cells. As to the kind of experiment: MCF-7 cell number (MTS), caspase-9 cleavage, PI uptake and colony formation. The settings on record: for colony formation: 2 weeks. As to the method: FIGS. 14A-E—Apigenin suppresses MUC1 expression in MCF-7 cells. (FIG. 14A) MCF-7 cells were treated with DMSO vehicle, 75 μM apigenin or 75 μM baicalein for 3 d. Total RNA was assayed for MUC1 mRNA levels by qRTPCR. The results (mean+SD of 3 determinations) are expressed as relative MUC1 mRNA levels as compared to that obtained in cells treated with DMSO. (FIGS. 14B-C) MCF-7 cells were treated with the indicated concentrations of apigenin and baicalein for 3 days. Nuclear (FIG. 14B) and whole cell lysates (FIG. 14C) were immunoblotted with the indicated antibodies. D. Lysates from MCF-7 cells were infected to stably express a control lentivirus and one with a MUC1 shRNA were immunoblotted with the indicated antibodies. (FIG. 14E) The indicated MCF-7 cells were treated with […] apigenin for 3 d. Viable cell number was determined by the MTS assay. The results (mean+SD of 3 determinations) are expressed as percentage of control growth in the presence of DMSO.
FIGS. 15A-C—Apigenin inhibits MCF-7 clonogenic survival. (FIG. 15A) MCF-7 cells were treated with DMSO, 75 μM apigenin or 75 μM baicalein for 3 d. Lysates were immunoblotted with the indicated antibodies. (FIG. 15B) MCF-7 cells were treated with DMSO, 75 μM apigenin or 75 μM baicalein for 3 d, stained with propidium iodide and analyzed by flow cytometry. […] (FIG. 15C) MCF-7 cells were plated at a density of 1000 cells/6 cm dish. At 24 h after seeding, DMSO or apigenin at concentrations of 25, 50 and 75 μM was added to the medium. After 2 weeks, colonies were stained with crystal violet. The results (mean+SD of 3 determinations) are expressed as percentage of control colony formation in the presence of DMSO.

For the next assay, the system named is HCC1937 cells. As to the kind of experiment: HCC1937 viability (MTS). The settings on record: HCC1937 (low to undetectable MUC1-C), 3 d. The procedure:
FIGS. 16A-D—Effects of apigenin on breast cancer cells without and with endogenous MUC1 expression. (FIG. 16A) Lysates from human MCF-7, HCC1937 and BT474 cells were immunoblotted with the indicated antibodies. (FIG. 16B) BT474 cells were treated with indicated concentrations of apigenin and baicalein for 3 d, washed and then treated for an additional 3 d. Lysates were immunoblotted with the indicated antibodies. (FIG. 16C) BT474 (triangles) and HCC1937 (squares) cells were treated with apigenin for 3 d. Viable cell numbers were determined by MTS assay. The results (mean+SD of 3 determinations) are expressed as percentage of control growth in the presence of DMSO. (FIG. 16D) BT474 cells were plated at a density of 5000 cells/6 cm dish. At 24 h after seeding, DMSO or apigenin at concentrations of 25, 50 and 75 μM was added to the medium. After 2 weeks, colonies were stained with crystal violet. The results (mean+SD of 3 determinations) are expressed as percentage of control colony formation in the presence of DMSO.

The subject of the next assay is MCF-10A cells. As to the kind of experiment: Cell cycle distribution and growth of MCF-10A cells (peptide). The settings on record: 5 μM. As to the method:
(§1) FIGS. 4A-E. Selectivity of MUC1/CQC for MUC1 expressing breast cancer cells. (FIG. 4A) ZR-75-1 cells were stably infected with an empty lentivirus (vector) or one expressing a MUC1 siRNA. Lysates for the infected cells were immunoblotted with the indicated antibodies. (FIG. 4B) ZR-75-1/vector cells were left untreated (diamonds), and ZR-75-1/vector (squares) and ZR-75-1/MUC1 siRNA (triangles) cells were treated with 5 μM MUC1/CQC peptide for the indicated times. Viable cell number was determined by trypan blue exclusion. (FIG. 4C) 293 cells were left untreated (diamonds), and treated with 5 μM MUC1/CQC (squares) or MUC1/AQA (triangles) for the indicated times. Viable cell number was determined by trypan blue exclusion. (FIG. 4D) MCF-10A cells were left untreated (left panel), and treated with 5 μM MUC1/CQC (middle panel) or MUC1/AQA (right panel). At 3 d, cells were analyzed for cell cycle distribution. […] Viable cell number was determined by trypan blue exclusion.
Human breast cancer ZR-75-1, ZR-75-1/vector, ZR-75-1/MUC1siRNA (Ren et al., 2004) cell lines were grown in RPMI1640 medium supplemented with 10% heat-inactivated fetal bovine serum (HI-FBS), 100 U/ml penicillin, and 100 μg/ml streptomycin (Invitrogen) in a humidified incubator at 37° C. and 5% CO2. […] Viability was determined by trypan blue exclusion. […]

For a further assay, the system named is MUC1-negative 293 cells. In words: Viable cell number by trypan blue exclusion, 293 cells. The settings on record: 5 μM. The procedure:
as §1
(§2) Human breast cancer ZR-75-1, ZR-75-1/vector, ZR-75-1/MUC1siRNA (Ren et al., 2004) cell lines were grown in RPMI1640 medium supplemented with 10% heat-inactivated fetal bovine serum (HI-FBS), 100 U/ml penicillin, and 100 μg/ml streptomycin (Invitrogen) in a humidified incubator at 37° C. and 5% CO2. […] Viability was determined by trypan blue exclusion.

For the next assay, the system named is ZR-75-1/vector cells. In words: Viable cell number by trypan blue exclusion, ZR-75-1/vector. The settings on record: 5 μM. The procedure:
as §1, §2

A further assay deals with ZR-75-1/MUC1siRNA cells. As to the kind of experiment: Viable cell number by trypan blue exclusion, ZR-75-1/MUC1siRNA. The settings on record: 5 μM, versus ZR-75-1/vector. The procedure:
as §1, §2

For `O=c1cc(-c2ccc(O)cc2)oc2cc(O)cc(O)c12` [Apigenin, 4′,5,7-trihydroxyflavone], the colony formation result with MCF-7 cells (MCF-7, 25 μM) is listed as “substantial decrease in colonies”. In the assay on MCF-7 cells (MCF-7, 75 μM, 3 d), the caspase-9 cleavage result is given as “cleavage of caspase-9” and the “cell membrane integrity (PI)” value is given as “loss of cell membrane integrity”. Further, in the assay with MCF-7 cells (MCF-7, 75 µM, 3 d, MTS), the “effect of silencing MUC1 (shRNA) on apigenin-induced decreases in cell number” value is on record as “partially decreased sensitivity”. Besides, the colony formation result in the assay with MCF-7 cells (MCF-7, higher concentrations (50 and 75 μM)) was “complete loss of survival”. Moreover, the “viability (MTS)” value in the assay with HCC1937 cells is listed as “not”.

`CC[C@H](C)[C@H](NC(=O)[C@H](CC(=O)O)NC(=O)[C@H](CC(C)C)NC(=O)[C@H](CCC(N)=O)NC(=O)CNC(=O)[C@H](Cc1ccc(O)cc1)NC(=O)[C@H](CC(N)=O)NC(=O)[C@H](CCCCN)NC(=O)[C@H](CCCNC(=N)N)NC(=O)[C@H](CCCNC(=N)N)NC(=O)[C@H](CS)NC(=O)[C@H](CCC(N)=O)NC(=O)[C@H](CS)NC(=O)[C@@H](CCCNC(=N)N)NC(=O)[C@@H](CCCNC(=N)N)NC(=O)[C@@H](CCCNC(=N)N)NC(=O)[C@@H](CCCNC(=N)N)NC(=O)[C@@H](CCCNC(=N)N)NC(=O)[C@@H](CCCNC(=N)N)NC(=O)[C@@H](CCCNC(=N)N)NC(=O)[C@@H](CCCNC(=N)N)NC(=O)[C@H](N)CCCNC(=N)N)C(=O)N[C@@H](Cc1ccccc1)C(=O)N1CCC[C@H]1C(=O)O` [MUC1/CQC]: the “growth / viable cell number” value in the assay on MCF-10A cells is “no effect”; in the assay on MUC1-negative 293 cells, “no apparent effect”; with ZR-75-1/vector cells, “growth arrest and death”; in the assay with ZR-75-1/MUC1siRNA cells, “substantially less effect”. Besides, the cell cycle distribution result with MCF-10A cells (3 d) is recorded as “no effect”.
